The test relates to rats with 5/6 renal ablation (Nx). Nature of the test: Protocol 2 (late treatment), 5/6 renal ablation (Nx). Format: in vivo, male Munich-Wistar rats. The note with it: Ly as an add-on to L, Day 150. From the text:
One-hundred forty-five adult male Munich-Wistar rats, obtained from a local facility at the Faculty of Medicine, University of São Paulo, weighing between 220 and 250 g, were used in this study. All experimental procedures were approved by the local Research Ethics Committee (Comissão de Ética para Análise de Projetos de Pesquisa do Hospital das Clínicas da Faculdade de Medicina da Universidade de São Paulo, CAPPesq, process n° 0905/09), and carried out following strictly our institutional guidelines and current international standards for manipulation and care of laboratory animals. Body weights and general conditions were assessed daily. Five-sixths renal ablation (Nx) was performed as a single-step procedure under anesthesia with ketamine 50 mg/kg and xylazine 10 mg/kg im. After ventral laparotomy, the right kidney was excised and two or three branches of the left renal artery were ligated, so as to promote infarction of two-thirds of the left kidney. The operation was invariably well tolerated. Sham-operated rats underwent anesthesia and manipulation of the renal pedicles without removal of renal mass. After surgery, rats received enrofloxacin and, upon recovery, had free access to tap water and regular rodent chow containing 0.5 Na and 22% protein (Nuvital Labs, Curitiba, Brazil), and were kept at 23 ± 1 °C and 60 ± 5% relative air humidity, under an artificial 12–12 hour light/dark cycle. Rats were then treated following two different experimental protocols (described later).
In Protocol 2, adult male Munich-Wistar rats were subjected to Nx as described earlier, and left untreated for two months. At this time, TCP and UalbV were assessed as described earlier. Rats with TCP ≤ 170 mmHg or UalbV ≤ 40 mg/day were excluded from the study. The remaining […] Nx rats were divided into four experimental groups: Nx + V (N = 14), untreated Nx rats; Nx + L (N = 15), receiving oral L, 50 mg/kg in drinking water; Nx + L + Eple (N = 14), receiving L and Eple (N = 14), 150 mg/kg/day; and Nx + L + Ly (N = 14), receiving L and Ly (20 mg/kg/day) as described before. A group of S rats (N = 16) was also included. All groups were followed for 90 days after treatments were started (150 days after nephrectomy), with monthly measurement of TCP and UalbV. At the end of this period, rats were anesthetized, blood was collected, and the renal tissue was perfusion-fixed and prepared for histomorphometric and immunohistochemical examination in the same manner as for Protocol 1.
Histomorphometric analysis was performed blindly by two independent observers. The extent of glomerular injury was estimated, in PAS-stained sections, by determining the percentage of glomeruli with sclerotic lesions. The fraction of the renal cortical area occupied by interstitial tissue (%INT) was estimated in 25 consecutive microscopic fields of Masson-stained sections by a point-counting technique, at a final magnification of 200X, under a 144-point grid.
Immunohistochemistry was performed on 4-μm-thick sections, mounted on glass slides precoated with 2% silane. Sections were deparaffinized and rehydrated by conventional techniques, then heated in citrate buffer for antigen retrieval and incubated overnight with the primary antibody at 4 °C (no antibody in negative control experiments). Primary antibodies used were: monoclonal mouse anti-rat ED-1 (Serotec, Oxford, UK); polyclonal rabbit anti-human AngII (Peninsula Laboratories, San Carlos, CA); and polyclonal rabbit anti-collagen I (Abcam, Cambridge, UK).
For ED-1 detection, sections were preincubated with 5% normal rabbit serum to prevent nonspecific binding, then incubated overnight at 4 °C with the primary antibody diluted in BSA at 1%. […]

Regarding `O=c1[nH]c2ccc(/C=C3\c4ccc(F)cc4COc4cc(F)ccc43)cc2[nH]1` [Ly], the “Interstitial expansion (cortical interstitial area)” value was “reduced to levels significantly lower than in the Nx + V group”.

The values are drawn from PMC5554220, “A Novel Aldosterone Antagonist Limits Renal Injury in 5/6 Nephrectomy” (Scientific Reports, 2017).
